Earlier results, collected in patent US11761043B2, “Machine assay and analysis for selecting antihypertensive drugs” (Geneticure Inc., priority 2014, dated 2023).

What was measured:
CYP2D6 [1] = target: CYP2D6 (Homo sapiens, UniProt P10635); conditions: in vivo
CYP2D6 [2] = conditions: individuals homozygous for adenine (AA) at rs3892097 vs subjects not homozygous AA
renin = conditions: cytosine (guanine) variant of renin rs12750834

CYP2D6 (Homo sapiens, UniProt P10635), sequence (P10635 whole entry): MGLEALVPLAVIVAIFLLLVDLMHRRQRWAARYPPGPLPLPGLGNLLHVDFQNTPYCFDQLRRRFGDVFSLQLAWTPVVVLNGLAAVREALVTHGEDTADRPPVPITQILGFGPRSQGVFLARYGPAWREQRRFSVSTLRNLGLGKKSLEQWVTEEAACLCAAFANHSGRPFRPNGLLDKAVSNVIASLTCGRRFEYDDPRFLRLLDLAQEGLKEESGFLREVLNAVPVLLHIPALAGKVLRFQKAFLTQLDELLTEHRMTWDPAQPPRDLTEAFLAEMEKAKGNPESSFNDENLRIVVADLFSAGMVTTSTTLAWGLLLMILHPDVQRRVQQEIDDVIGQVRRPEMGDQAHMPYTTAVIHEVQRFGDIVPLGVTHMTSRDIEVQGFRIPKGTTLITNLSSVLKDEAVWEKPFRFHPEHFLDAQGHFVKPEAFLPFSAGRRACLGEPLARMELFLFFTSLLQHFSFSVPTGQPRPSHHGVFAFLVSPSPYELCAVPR

| plasma levels after taking these drugs (CYP2D6 [2]) | SMILES | also measured |
| --- | --- | --- |
|  | COc1ccccc1OCCNCC(O)COc1cccc2[nH]c3ccccc3c12 (stereo not shown) [carvedilol] | requirement of CYP2D6 for metabolism (CYP2D6 [1]): do not require CYP2D6 for their metabolism |
| higher plasma levels | COCCc1ccc(OCC(O)CNC(C)C)cc1 (stereo not shown) [metoprolol] |  |
| higher plasma levels | CC(C)NCC(O)COc1cccc2ccccc12 (stereo not shown) [propranolol] |  |
|  | CCCCC(=O)N(Cc1ccc(-c2ccccc2-c2nnn[nH]2)cc1)[C@H](C(=O)O)C(C)C [valsartan] | reduction in blood pressure upon administration (renin): greater reduction in blood pressure |
